One data set has as its system Caco-2 cells. Kind of data set: MTT cell viability assay, IC50 in Caco-2 cells. The format is cell-based. Conditions: Homo sapiens, 24 h, SE less than 10% of value. The procedure:
(§1) The human liver hepatocellular carcinoma cell line, HepG2, and the human adenocarcinoma of colon cell line, Caco-2, were cultured in Eagle’s Minimum Essential medium supplemented with 1% (v/v) non-essential amino acids, 0.2 mM L-glutamine, 50 units/mL penicillin, 50 μg/mL streptomycin and 10% (v/v) or 20% (v/v) fetal bovine serum (Sigma Aldrich, Milan, Italy) for HepG2 or Caco-2, respectively. The human embryonal lung fibroblast cell line, MRC5, was cultured in Dulbecco’s Modified Eagle medium (Sigma Aldrich, Milan, Italy) supplemented with 10% (v/v) fetal bovine serum, 0.2 mM L-glutamine, 50 units/mL penicillin and 50 μg/mL streptomycin. HUVEC cells were cultured in endothelial growth medium-2, supplemented with fetal bovine serum (2%), VEGF (0.1%), rH FGF-B (0.4%), rH EGF (0.1%), GA-1000 (0.1%), hydrocortisone (0.04%), R3-IGF-1 (0.1%), heparin (0.1%) and ascorbic acid (0.1%). Cells were maintained at 37 °C in a 5% CO2, 95% air-humidified atmosphere and passaged twice a week. Cell lines were obtained from Interlab Cell Line Collection, Istituto Nazionale per la Ricerca sul Cancro, Genoa, Italy. HUVEC were obtained from Lonza (Milan, Italy).
(§2) An MTT assay was used to analyse cell viability. Cells were seeded in 96 wells at the density of 2 × 10^4/cm^2 and, after 24 h, they were treated with P. tomentosa compounds or with the vehicle (DMSO). After a further 24 h of treatment, 0.5 mg/mL of MTT was added to the cell medium and incubated for 1.5 h at 37 °C. The resulting formazan crystals were dissolved in 100 μL of DMSO and absorbances were measured at 595 nm and 655 nm. The background signals at 655 nm were subtracted from 595 nm signals, and data were expressed as a percent of cell viability. The concentration of each compound that is required for 50% inhibition in vitro (IC50) was calculated as described in Husseini et al.. IC50 values were obtained for Caco-2, HepG2 and MRC5 cells by performing MTT assays with concentrations ranging from 0.01 μg/mL to 5 μg/mL.

Data set [1] relates to HepG2 cells. The data set can be described thus: MTT cell viability assay, IC50 in HepG2 cells. The format is cell-based. The following applies: Homo sapiens, 24 h, SE less than 10% of value. The procedure:
as §1, §2

The next data set relates to MRC5 cells. Kind of data set: MTT cell viability assay, IC50 in MRC5 cells. The format is cell-based. The following applies: Homo sapiens, 24 h, SE less than 10% of value. As to the method: as §1, §2
In data set [2] the test system is HepG2, Caco-2, MRC5 and HUVEC cells. The data set can be described thus: MTT assay, comparison of cytotoxic effects at 1 μM on four cell types. The format is cell-based, human. The following applies: 24 h, Caco-2, HepG2, MRC5, HUVEC.
Excerpt: We focused attention on 12β,6′-dihydroxycalotropin (1), 16α-hydroxycalotropin (2), 12β-hydroxycalactin (3), calotropin (4), and calactin (5), among those described by Hosseini et al., and tested their cytotoxic activity by a 3-(4,5-dime-thylthiazol-2-yl)-2,5-diphenylte-tetrazolium bromide (MTT) assay on two cancer cell lines (HepG2 and Caco-2), not previously employed, on an immortalised nontumoral cell line (MRC5) and normal primary cells (HUVEC).
Figure 2 Comparison of cytotoxic effects of P. tomentosa compounds on cancer cell lines (Caco-2 and HepG2), on an immortalised cell line (MRC5) and normal cells (HUVEC). Cells were treated for 24 h with 1 μM of each compound. Residual viability was measured by the MTT assay. Values are the means ± standard error (SE) of three independent experiments performed in triplicate. Statistical analysis was performed using the Student’s t-test. * p < 0.05 and ** p < 0.01 vs. cells treated with the vehicle (DMSO).
as §1, §2

In data set [3] the test system is HepG2 cells. Kind of data set: BrdU incorporation (proliferation) assay. The format is cell-based, human. The following applies: HepG2, 1 μM, 24 h. The procedure: Cell proliferation was analysed by a BrdU (Roche Diagnostics SpA, Monza, Italy) incorporation assay, as previously described. Briefly, HepG2 cells, seeded at adensity of 3 × 10^3/cm^2 on round glass cover slips, were treated for 24 h with P. tomentosa compounds at 1 μM. Then, BrdU was added to cell medium (final concentration, 100 μM) for 1 h. Cells were fixed (in 3% paraformaldehyde, 10 min), permeabilised (in 0.2% Triton X-100, 5 min) and treated with HCl 1.5 N (5 min). Finally, cover slips were incubated with a monoclonal antibody against BrdU (Sigma-Aldrich, Milan, Italy), 1:100, and with a TRITC-conjugated secondary antibody, 1:100. After staining with Hoechst, cover slips were mounted with Mowiol (Sigma, Milan, Italy). […] Images were acquired with Axiocam MRc5 and processed with ImageJ Launcher. The number of cells into S-phase was expressed as the ratio between the number of cells incorporating BrdU and the total number of cells.

Data set [4] relates to HepG2 cells. Kind of data set: Scratch-wound-healing assay. The following applies: HepG2, 1 μM, 24, 48 and 72 h. The format is cell-based, human. The procedure: Cells were seeded at a density of 5 × 10^4 cells/well in 24-well plates and allowed to grow for 72 h, reaching confluence. Mitomycin C (10 μg/mL) was added to inhibit proliferation, and then a sterile 2–10 μL pipette tip was used to perform a vertical scratch in the monolayer of each well. Detached cells were removed by washing with phosphate-buffered saline. Then, 300 μL of fresh medium containing P. tomentosa compounds (1 μM) or vehicle was added to each well and incubated for 72 h. Images of migrating cells were taken at 0, 24, 48 and 72 h, by using an Olympus CKX41 fluorescent microscope (Olympus Italia srl, Segrate, Italy) and elaborated by the ImageJ software. For each scratch, wound width was calculated as the average distance between the edges in four different sites. Then, reductions in wound wights at 24, 48 and 72 h were expressed as % of the width at time zero.

Data set [5] relates to HepG2 cells. The data set can be described thus: Transwell migration assay. Conditions: HepG2, 1 μM, 18 h. The format is cell-based, human. The procedure: Transwell filters (coated with collagen) in serum-free media containing 0.1% of BSA, with a PET membrane with 8 μm pores (BD Biosciences, Milan, Italy), were rehydrated for 2 h at 37 °C. HepG2 were seeded in the upper chambers at a density of 75 × 10^3 cells in MEM with 0.1% BSA and treated with or without 1 µM of Pergularia compounds. MEM−0.1%BSA, supplemented with 10% FBS, was added to the lower chamber as chemoattractant. Control wells without 10% FBS were included to assess random migration. After incubation at 37 °C in 5% CO2 for 18 h, the migrated cells were fixed with 4% paraformaldehyde for 5 min, permeabilised with methanol for 20 min and stained with crystal violet 0.5% for 15 min at room temperature. The cells on the lower side of the filter were allowed to dry before counting. Eight separate bright-field images were randomly acquired of each filter using an Olympus CKX41 Image Analyzer. The cells in each image were counted and analysed compared to control-transfected cells.

Another data set concerns caspase-3 in HepG2 cells. The data set can be described thus: Caspase-3 colorimetric activity assay. The format is cell-based, human. Conditions: HepG2, 1 μM, 24 h. The procedure: To evaluate apoptosis, a caspase-3 colorimetric assay was performed. Briefly, HepG2 cell lines were seeded in plates of 60 mm diameter at a density of 3.5 × 10^4/cm^2 and, after 24 h, treated with P. tomentosa compounds (1 μM each) for 24 h. Then, cells were harvested in phosphate-buffered saline, collected by centrifugation and lysed in a buffer containing 50 mM HEPES, 0.1% CHAPS, 10 mM dithiothreitol, 100 mM NaCl, 1 mM EDTA and 10% sucrose. Proteins (30 μg) were incubated for 2 h at 37 °C in a reaction mixture containing the caspase-3 substrate (acetyl-Asp-Glu-Val-Asp, labelled with p-nitroanilide) (Sigma-aldrich, Milan, Italy) at a concentration of 0.2 mM. Finally, the release of free p-nitroanilide was monitored spectrophotometrically at 405 nm. Enzyme activity was expressed as percentage of absorption of treated cells versus vehicle-treated cells.

The test system of data set [6] is HepG2 cells. The data set can be described thus: TUNEL assay. The following applies: HepG2, 1 μM, 24 h. The format is cell-based, human. As to the method: Microscopic evaluation of apoptosis was performed by a TUNEL assay, using a commercial kit (Fragment End Labelling (FragEL™), […]) DNA Fragmentation Detection Kit, Sigma-Aldrich, Milan, Italy) according to the manufacturer-provided protocol, with some modifications. Briefly, cells were seeded on glass cover slips placed in 24-well plates at a density of 3.5 × 10^3/cm^2 and, after 48 h, they were treated with 1 μΜ of each compound for a further 24 h. Cells were fixed in 3% paraformaldehyde for 10 min, permeabilised in 0.2% Triton X-100 for 5 min and treated with HCl 1.5 N for 8 min. Finally, cover slips were equilibrated in equilibration buffer (10 min) and incubated with label mix containing the TdT enzyme for 1 h at 37 °C, then mounted with mounting media. Microscope observations were performed by the AxioSkop 40 fluorescent microscope. Images were acquired with Axiocam MRc5 (Carl Zeiss MicroImaging, Inc., Jena, Germany).

As for `C[C@@H]1C[C@@H](O)[C@]2(O)O[C@@H]3C[C@@]4(C=O)C(CCC5C4C[C@@H](O)[C@]4(C)C(C6=CC(=O)OC6)CC[C@]54O)C[C@H]3O[C@@H]2O1` (stereo partly drawn) [Compound 3, 12β-hydroxycalactin], the IC50 is 4.51 µM in the data set with Caco-2 cells, 6.29 µM in the data set with HepG2 cells [1] and 5.98 µM in the data set with MRC5 cells. The “relative cytotoxicity (residual viability, MTT)” value in data set [2] is listed as “less cytotoxic”. Moreover, in the data set on HepG2 cells [3], the “effect on BrdU incorporation / cell cycle progression” value is recorded as “slightly (but not significantly) reduced BrdU incorporation”. Also, in the data set on HepG2 cells [4], the “effect on wound closure” value is “had an effect at 48 h only”. Also, the “effect on transwell migration” value in the data set on HepG2 cells [5] was “reduce migration”. In addition, the caspase-3 activity entry in the data set on caspase-3 in HepG2 cells is “did not seem to affect enzyme activity”. Besides, the “apoptotic nuclei (TUNEL)” value in the data set with HepG2 cells [6] is reported as “undetectable”.

(Values after article PMC9369610, “Pro-Apoptotic and Pro-Autophagic Properties of Cardenolides from Aerial Parts of Pergularia tomentosa” (Molecules, 2022).)
